We go through 3 compounds from publication PMC5047629, “Synthesis, Pharmacological Profile and Docking Studies of New Sulfonamides Designed as Phosphodiesterase-4 Inhibitors” (PLoS ONE, 2016).

In data set [1] the test system is A/J mice. Description: Duration of xylazine/ketamine anesthesia (behavioral correlate of emesis). Type of data set: in vivo. As for the experimental part:
This assessment was carried out as previously reported. […] The animals were placed in dorsal position and their spontaneous return to the prone position was used as an endpoint to determine anesthesia duration.

The subject of data set [2] is A/J mice. Kind of data set: LPS-induced lung inflammation and airway hyper-reactivity. Type of data set: in vivo. The following applies: LASSBio-448 2.5 and 10 mg/kg oral, cilomilast 1 mg/kg oral, 1 h before LPS, 24 h post-challenge. As for the experimental part:
A/J mice were anesthetized with isoflurane aerosol and then challenged with LPS (25μg/25 μL) or phosphate buffered solution (PBS) by intranasal instillation as reported. The analyses were performed 24 h after stimulation. Treatment with LASSBio-448 (2.5–10 mg/kg/mice) or cilomilast (1 mg/kg) was performed orally, 1 h before LPS exposure. LASSBio-448 was dissolved in 0.2% Tween 80, while cilomilast was dissolved in 1 M NaOH and further neutralized with 1 N HCl, before adjusting the final volume with 0.9% NaCl solution (saline). The substances were dissolved immediately before use.
(§1) Airflow and transpulmonary pressure were recorded with a Buxco pulmonary mechanics processing system (Buxco Electronics, Sharon, CT), which calculated resistance (cmH2O.s/ml) and dynamic lung compliance (mL/cmH2O) in each breath cycle. Elastance was calculated as the inverse of compliance values. Mice were anesthetized with nembutal (60 mg/kg), and the neuromuscular activity was blocked with bromide pancuronium (1 mg/kg). Animals were allowed to stabilize for 5 min and increasing concentrations of methacholine (3–27 mg/mL) were aerosolized for 5 min each. Baseline pulmonary parameters were assessed with aerosolized phosphate buffer solution (PBS).
The MPO activity present in the lung tissue was colorimetrically determined as described by Hirano (1996), with minor changes. Briefly, after lung perfusion with 20 mM EDTA in 0.9% saline, lung samples were homogenized in Hank´s balanced solution (HBSS) at pH 7.4. The homogenates were centrifuged for 10 min at 1300 xg and 4°C. Red blood cells were removed by hypotonic and hypertonic lysis and suspended cells were re-centrifuged as described above. The pellet was then suspended in HBSS at pH 7.4 containing 0.5% hexadecyltrimethyl ammonium bromide (HTAB). The homogenates were centrifuged for 30 min at 12500 xg and 4°C. The supernatants were then collected and incubated with 0.167 mg/mL of ortho-dianisidine dihydrochloride for 15 min at 37°C, after which 0.0006% H2O2 in 50 mM phosphate buffer at pH 6 was added. The reaction was stopped 10 min later by adding 50 μL of 1% sodium azide. The measurement was done at 460 nm using the SpectraMax M5 microplate reader (Molecular Devices).

Data set [3] deals with A/J mice. Description: Murine model of asthma with 4 weekly OVA provocations (days 14, 21, 28, 35), interventional treatment. The following applies: LASSBio-448 100 mg/Kg oral. Type of data set: in vivo. As for the experimental part: Sensitization was performed by means of a subcutaneous injection of 50 μg ovalbumin (OVA) (grade V; Sigma-Aldrich, St. Louis, MO) adsorbed to 5 mg of Al(OH)3 in 0.2 mL of sterile 0.9% NaCl (saline) at days 0 and 14. Intranasal OVA provocations (25 μg /25 μL saline) were performed at 19 and 20 days post-sensitization under isofluorane volatile anaesthesia (Cristalia, São Paulo, Brazil). Alternatively, sensitization as described above were done at days 0 and 7, while the OVA provocations were carried out at days 14, 21, 28 and 35 [39]. Negative control groups were represented by sensitized mice in which allergen was replaced by saline as a challenge. Treatments were done orally 1 h before provocations. Test compounds were dissolved in saline containing 0.2% Tween 80. All solutions were freshly prepared immediately before use. Analyses were performed 24 h after the last provocation.
as §1
The EPO activity present in lung tissue was determined with a colorimetric assay as described by Strath et al. (1985), with minor modifications. Briefly, the lungs were cannulated and perfused with saline/EDTA (20 mM). Then, lung samples were homogenized in buffer solution containing 0.5% HBSS (Hank´s balanced solution, pH 7.4; Sigma Chemical Co.) using a tissue homogenizer (T25 ultra-Tirrax). Samples were centrifuged at 1300 xg for 10 min at 4°C. Red blood cells were removed by hypotonic and hypertonic lysis. The suspended cells were then centrifuged again at 1300 xg for 10 min at 4°C. The pellet was then suspended in a solution of HBSS containing 0.5% of HTAB (hexadecyltrimethylamonium bromide; Sigma Chemical Co.) (pH 7.4). This suspension was subjected to heat shock for lysing the cells in three cycles freeze/thawed. At the end, the supernatants were collected, centrifuged at 12000 rpm for 15 min at 4°C and assayed spectrophotometrically for EPO determination. Fifty μl of the samples were placed, and then 50 μl of the substrate (1.5 mM o-phenylenediamine and 6.6 mM hydrogen peroxide in 0.05 mM Tris-HCl buffer, pH 8.0) was added and, after a 30 min incubation at room temperature, 50 μl of H2SO4 (4M) was added to stop the reaction. The optical density reading was performed on the SpectraMax M5 spectrophotometer (Molecular Devices) at a wavelength of 492 nm.
Right lungs tissue samples from saline- and OVA-exposed mice were homogenized in PBS containing 0.05% Triton X-100 and a protease inhibitor cocktail (Complete®, Hoffmann-La Roche Ltd, Basel, Switzerland). After centrifugation at 13000xg for 10 min and 4°C, the levels of IL-13, IL-5, IL-4 and eotaxin-2 were quantified in the supernatant, using commercially available ELISA kits (DuoSet; R&D Systems, Minneapolis, MN, USA). The results were expressed as picograms of cytokine per right lung.

For data set [4], the system named is PDE3. Description: PDE3 activity inhibition. Type of data set: biochemical.
The mark [5] stands for this setting: rolipram 10 mg/Kg oral, right lung, 24 h after last challenge, vs vehicle, Fig 8.

For the compound `COc1ccc([C@]2(C#N)CC[C@@H](C(=O)O)CC2)cc1OC1CCCC1` [cilomilast, reference compound], the “reduction of sleep time (duration of xylazine/ketamine anesthesia)” value in data set [1] (5.8 μmol/kg oral, n = 5, P<0.01) stood at 28.4%. In data set [2] (Fig 9A), the “LPS-induced airway hyper-reactivity (lung elastance after methacholine 3–27 mg/ml)” value is listed as “blockade”. In data set [2] (Fig 9B), the “neutrophil infiltration into the lung tissue (MPO activity)” value is given as “blockade”.
With `COc1ccc(C2CNC(=O)C2)cc1OC1CCCC1` (centres unmarked) [1 (Rolipram), rolipram, reference compound], the “airway hyper-reactivity to methacholine, airway resistance” value in data set [3] (rolipram 10 mg/Kg oral, Fig 7A) is listed as “equally effective in inhibiting”. The “airway hyper-reactivity to methacholine, lung elastance” value in data set [3] (rolipram 10 mg/Kg oral, Fig 7B) is recorded as “equally effective in inhibiting”. Also, in data set [3] (setting [5]), the “IL-4 level in lung tissue” value is recorded as “reduction in the levels”, the “IL-5 level in lung tissue” value is listed as “reduction in the levels”, the “IL-13 level in lung tissue” value was “reduction in the levels” and the “eotaxin-2 level in lung tissue” value was “reduction in the levels”. In addition, the “allergen-induced eosinophil accumulation in the lung tissue (eosinophil peroxidase)” value in data set [3] (rolipram 10 mg/kg oral, at third and fourth weeks of challenge, Fig 5) was “impair the progress”. In addition, in data set [1] (3.5 μmol/Kg oral), the “reduction of sleep time (duration of xylazine/ketamine anesthesia)” value was found to be 30%. Moreover, in data set [1] (11 μmol/Kg oral), the “reduction of sleep time (duration of xylazine/ketamine anesthesia)” value stood at 38.5%. The “reduction of sleep time (duration of xylazine/ketamine anesthesia)” value in data set [1] (36 μmol/Kg oral) is reported as 40.8%.
By IC50 is commonly meant the concentration at which inhibition is half-maximal. Read a low IC50 as greater potency. Compound `Cc1[nH]c(=O)c(C#N)cc1-c1ccncc1` [milrinone, reference compound] came in with a 50% inhibitory concentration (IC50) in data set [4] of 3.2 µM.
